Assay results published in ChEMBL document CHEMBL1201862, “PubChem BioAssay data set” (2004).
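Following 48 hours of exposure in 96-well plates, responses at five concentrations were used to interpolate endpoints linearly. GI50 = concentration required for 50% inhibition of growth.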 The source made the active and inactive calls. Rule as the data show it: active = GI50 up to about 1.1 µM and inactive = higher.

Columns and labels:
Test in all cases: inhibition of tumour cell growth, NCI panel, 48 h
UACC-62 = tested on: UACC-62
OVCAR-3 = tested on: OVCAR-3
M14 = tested on: M14
786-0 = tested on: 786-0
CAKI-1 = tested on: CAKI-1
SF-539 = tested on: SF-539
MCF7 = tested on: MCF7
U-251 = tested on: U-251
NCI-H23 = tested on: NCI-H23
TK-10 = tested on: TK-10
SR = tested on: SR
SN12C = tested on: SN12C
PC-3 = tested on: PC-3
SF-295 = tested on: SF-295
OVCAR-8 = tested on: OVCAR-8
IGROV-1 = tested on: IGROV-1
RPMI-8226 = tested on: RPMI-8226
HT-29 = tested on: HT-29
HCT-15 = tested on: HCT-15
A498 = tested on: A498

Compound | GI50 (UACC-62) | GI50 (OVCAR-3) | GI50 (M14) | GI50 (786-0) | GI50 (CAKI-1) | GI50 (SF-539) | GI50 (MCF7) | GI50 (U-251) | GI50 (NCI-H23) | GI50 (TK-10) | GI50 (SR) | GI50 (SN12C) | GI50 (PC-3) | GI50 (SF-295) | GI50 (OVCAR-8) | GI50 (IGROV-1) | GI50 (RPMI-8226) | GI50 (HT-29) | GI50 (HCT-15) [µM] | GI50 (A498)
COC1=CC(=O)c2c(cc(COP(=O)(OCC3OC(n4cc(F)c(=O)[nH]c4=O)CC3O)N(C)CCCCCl)n2C)C1=O (configuration not stated) | 0.0736 µM (active) | 1.2 µM (inactive) | 0.136 µM (active) | 0.186 µM (active) | 0.0102 µM (active) | < 0.0118 µM (active) | < 0.01 µM (active) | 0.409 µM (active) | 0.142 µM (active) | 1.81 µM (inactive) | < 0.01 µM (active) | < 0.0248 µM (active) | 0.173 µM (active) | < 0.0132 µM (active) | 0.0593 µM (active) | 0.479 µM (active) | < 0.0237 µM (active) | 0.233 µM (active) | 7.55 | –
C[C@]12CC[C@H](O)CC1=CC[C@@H]1[C@@H]2CC[C@]2(C)C(=O)/C(=C/c3ccc([N+](=O)[O-])cc3)C[C@@H]12 | 65 µM (inactive) | 15.2 µM (inactive) | 26.8 µM (inactive) | 3.43 µM (inactive) | 24.1 µM (inactive) | 6.92 µM (inactive) | 32.2 µM (inactive) | – | 18.8 µM (inactive) | – | 93.8 µM (inactive) | 11.2 µM (inactive) | 10.4 µM (inactive) | 6.65 µM (inactive) | 3.15 µM (inactive) | 8.73 µM (inactive) | > 100 µM (inactive) | 25.5 µM (inactive) | 28.8 | 13.5 µM (inactive)
CCC(C)c1c(Cl)nc(Cl)nc1Cl (configuration not stated) | 18.6 µM (inactive) | 4.57 µM (inactive) | 1.44 µM (inactive) | 10.9 µM (inactive) | – | 23.4 µM (inactive) | 4.45 µM (inactive) | 4.16 µM (inactive) | 2.64 µM (inactive) | 21.3 µM (inactive) | 1.25 µM (inactive) | 6.89 µM (inactive) | 12.7 µM (inactive) | 24 µM (inactive) | 17.9 µM (inactive) | 14.4 µM (inactive) | 11 µM (inactive) | 6.01 µM (inactive) | 5.13 | –
N#CCCC1C(C#N)C2CC1C1C3C=CC(C3)C21 (configuration not stated) | > 100 µM (inactive) | > 100 µM (inactive) | > 100 µM (inactive) | > 100 µM (inactive) | > 100 µM (inactive) | – | > 100 µM (inactive) | – | > 100 µM (inactive) | > 100 µM (inactive) | > 100 µM (inactive) | – | > 100 µM (inactive) | > 100 µM (inactive) | > 100 µM (inactive) | > 100 µM (inactive) | > 100 µM (inactive) | > 100 µM (inactive) | > 100 | –
C/C(=N\O)c1ccc2ccc3ccccc3c2c1 | 18.9 µM (inactive) | 34.2 µM (inactive) | 66.5 µM (inactive) | > 100 µM (inactive) | 51.9 µM (inactive) | 17.5 µM (inactive) | 41.1 µM (inactive) | 29.8 µM (inactive) | 65.3 µM (inactive) | 37.9 µM (inactive) | 21.8 µM (inactive) | 30.8 µM (inactive) | 32.3 µM (inactive) | 37.3 µM (inactive) | 21.6 µM (inactive) | 44 µM (inactive) | 34.6 µM (inactive) | 28.3 µM (inactive) | 28.9 | –
CC1(C)C2CC(c3ccncc3)ON2C(C)(C)N1O (configuration not stated) | > 100 µM (inactive) | > 100 µM (inactive) | > 100 µM (inactive) | > 100 µM (inactive) | > 100 µM (inactive) | > 100 µM (inactive) | > 100 µM (inactive) | > 100 µM (inactive) | > 100 µM (inactive) | > 100 µM (inactive) | > 100 µM (inactive) | > 100 µM (inactive) | > 100 µM (inactive) | > 100 µM (inactive) | > 100 µM (inactive) | > 100 µM (inactive) | > 100 µM (inactive) | > 100 µM (inactive) | > 100 | –
Cc1ccc(C(=O)N(Cc2ccccc2)Cc2ccccc2)cc1/N=N/N(C)C | 13.1 µM (inactive) | 4.49 µM (inactive) | 18.1 µM (inactive) | 22.2 µM (inactive) | 6.82 µM (inactive) | 18.5 µM (inactive) | 24.2 µM (inactive) | 37.8 µM (inactive) | 11.2 µM (inactive) | 33 µM (inactive) | 27.7 µM (inactive) | 14.6 µM (inactive) | 25.9 µM (inactive) | 9.29 µM (inactive) | 29.9 µM (inactive) | 40.1 µM (inactive) | 29 µM (inactive) | 7.6 µM (inactive) | 17.3 | –
O/N=N/c1ccc(Sc2ccc(/N=N/O)cn2)nc1 | > 100 µM (inactive) | > 100 µM (inactive) | > 100 µM (inactive) | > 100 µM (inactive) | > 100 µM (inactive) | > 100 µM (inactive) | > 100 µM (inactive) | > 100 µM (inactive) | > 100 µM (inactive) | > 100 µM (inactive) | > 100 µM (inactive) | > 100 µM (inactive) | > 100 µM (inactive) | > 100 µM (inactive) | > 100 µM (inactive) | > 100 µM (inactive) | – | > 100 µM (inactive) | > 100 | > 100 µM (inactive)
